From patent US10342796B2, “Acrylanilide derivative, preparation method, and applications thereof in pharmacy” (Ancureall Pharmaceutical (Shanghai) Co., Ltd., priority 2015, dated 2019)
Like-named read-outs stand apart in the source and are kept apart here.

Legend:
Experiment in all cases: Growth inhibition GI50 in vitro (CCK8/MTT, 72 h)
[1] = test system: H1975 (EGFR L858R/T790M); type: cell-based, human; settings: Homo sapiens, NCI-H1975
[2] = test system: HCC827 (EGFR dE746-A750); type: cell-based, human; settings: Homo sapiens
[3] = test system: PC-9 (EGFR dE746-A750); type: cell-based, human; settings: Homo sapiens
[4] = test system: PC-9ER (EGFR delE746-A750/T790M); type: cell-based, human; settings: Homo sapiens, PC-9/ER; EGFR mutant cell line; range of GI50; read-out: GI50 PC9ER
[5] = test system: N87 (HER2 Amp); type: cell-based, human; settings: Homo sapiens
[6] = test system: AU565 (Her2 amp); type: cell-based, human; settings: Homo sapiens
[7] = test system: SK-BR-3 (Her2 amp); type: cell-based, human; settings: Homo sapiens
[8] = test system: Calu-3 (Her2 amp); type: cell-based; settings: Homo sapiens
[9] = test system: H292 (EGFR WT); type: cell-based; settings: Homo sapiens, NCI-H292
[10] = test system: A431 (EGFR WT, amplification and high expression); type: cell-based, human; settings: Homo sapiens, A-431
[11] = test system: A549 (EGFR WT); type: cell-based, human; settings: Homo sapiens
[12] = test system: H1299 (EGFR wt, Nras Q61K); type: cell-based, human; settings: Homo sapiens, NCI-H1299
[13] = test system: H460 (EGFR wt, Kras G61H); type: cell-based, human; settings: Homo sapiens, NCI-H460
[14] = EGFR mutant cell line, range of GI50, read-out: GI50 H1975
[15] = H1975, EGFR L858R/T790M, read-out: GI50
[16] = HCC827, EGFR mutant cell line, range of GI50, read-out: GI50 HCC827
[17] = HCC827, EGFR dE746-A750, read-out: GI50
[18] = EGFR mutant cell line, range of GI50, read-out: GI50 PC-9
[19] = PC-9, EGFR dE746-A750, read-out: GI50
[20] = HER2 positive cell line, range of GI50, read-out: GI50 N87
[21] = N87, EGFR wt, Her2 amp, read-out: GI50
[22] = AU565, HER2 positive cell line, range of GI50, read-out: GI50 AU-565
[23] = AU565, EGFR wt, Her2 amp, read-out: GI50
[24] = SK-BR-3, HER2 positive cell line, range of GI50, read-out: GI50 SK-BR-3
[25] = SK-BR-3, EGFR wt, Her2 amp, read-out: GI50
[26] = Calu-3, EGFR wt, Her2 amp, read-out: GI50
[27] = EGFR wild type cell line, range of GI50, read-out: GI50 A431
[28] = A549, EGFR wild type cell line, range of GI50, read-out: GI50 A549
[29] = A549, EGFR wt, Kras G12S, read-out: GI50
[30] = EGFR wild type cell line, range of GI50, read-out: GI50 H1299
[31] = H1299, EGFR wt, Nras Q61K, read-out: GI50
[32] = EGFR wild type cell line, range of GI50, read-out: GI50 H460
[33] = H460, EGFR wt, Kras G61H, read-out: GI50
[34] = Table 15, 1000 nM to 0.03 nM serial dilution, read-out: GI50 H1975 (EGFR L858R/T790M)
[35] = Table 15, 1000 nM to 0.03 nM serial dilution, read-out: GI50 PC-9 (EGFR dE746-A750)
[36] = Table 16, 1000 nM to 0.03 nM serial dilution, read-out: GI50 N87 (HER2 amp)
[37] = Calu-3, Table 16, 1000 nM to 0.03 nM serial dilution, read-out: GI50 Calu3 (HER2 amp)
[38] = Table 15, 1000 nM to 0.03 nM serial dilution, read-out: GI50 H292 (EGFR WT)
[39] = A549, Table 15, 1000 nM to 0.03 nM serial dilution, read-out: GI50 A549 (EGFR WT)

GI50 [1, 14]	GI50 [1, 15]	GI50 [2, 16]	GI50 [2, 17]	GI50 [3, 18]	GI50 [3, 19]	GI50 [4]	GI50 [7, 24]	GI50 [7, 25]	GI50 [8, 26]	GI50 ([9]; H292, EGFR wt, read-out: GI50)	GI50 ([10]; A431, EGFR wt, read-out: GI50)	GI50 [10, 27]	GI50 [11, 28]	GI50 [12, 30]	GI50 [13, 32]	SMILES	GI50 [5, 20]	GI50 [5, 21]	GI50 [6, 22]	GI50 [6, 23]	further results
0.01 to 0.1 µM	0.0146 µM	< 0.01 µM	0.0023 µM	< 0.01 µM	0.0054 µM	< 0.01 µM	0.01 to 0.1 µM	0.0195 µM	0.0312 µM	> 1 µM	0.156 µM	0.1 to 1 µM	> 1 µM	> 1 µM	> 1 µM	C=CC(=O)Nc1cc(Nc2nccc(Nc3cccc(Cl)c3)n2)c(OC)cc1N(C)CCN(C)C [Compound 2, N-(5-(4-(3-chloro-phenylamino)-pyrimidin-2-ylamino)-2-(2-(dimethylamino-ethyl)-methyl-amino)-4-methoxyl-phenyl)-acrylamide]	< 0.01 µM	0.01 µM	0.01 to 0.1 µM	0.0154 µM	GI50 [11, 29]: > 1 µM; GI50 [12, 31]: > 1 µM; GI50 [13, 33]: > 1 µM
0.01 to 0.1 µM	0.0146 µM	0.01 to 0.1 µM	0.0094 µM	0.01 to 0.1 µM	0.0145 µM	< 0.01 µM	0.01 to 0.1 µM	0.0391 µM	0.0234 µM	> 1 µM	0.438 µM	0.1 to 1 µM	> 1 µM	> 1 µM	> 1 µM	C=CC(=O)Nc1cc(Nc2nccc(Nc3ccc(OCc4ccccn4)c(Cl)c3)n2)c(OC)cc1N(C)CCN(C)C [Compound 18, N-(5-(4-(3-chloro-4-(pyridin-2-methoxyl)phenylamino)pyrimidin-2-ylamino)-2-((2-(dimethylamino)ethyl)(methyl)amino)-4-methoxyl-phenyl)-acrylamide]	0.01 to 0.1 µM	0.0195 µM	0.01 to 0.1 µM	0.0156 µM	GI50 [11, 29]: > 1 µM; GI50 [12, 31]: > 1 µM; GI50 [13, 33]: > 1 µM
< 0.01 µM	0.0049 µM	< 0.01 µM	0.0064 µM	< 0.01 µM	0.0073 µM	< 0.01 µM	0.01 to 0.1 µM	0.0391 µM	0.0195 µM	> 1 µM	0.625 µM	0.1 to 1 µM	> 1 µM	> 1 µM	> 1 µM	C=CC(=O)Nc1cc(Nc2ncc(Cl)c(Nc3ccc(OCc4ccccn4)c(Cl)c3)n2)c(OC)cc1N(C)CCN(C)C [Compound 19, N-(5-(5-chloro-4-(3-chloro-4-(pyridin-2-methoxyl)phenylamino)-pyrimidin-2-ylamino)-2-((2-(dimethylamino)ethyl)(methyl)amino)-4-methoxyl-phenyl)-acrylamide]	0.01 to 0.1 µM	0.0195 µM	0.01 to 0.1 µM	0.0175 µM	GI50 [11, 29]: 0.978 µM; GI50 [12, 31]: > 1 µM; GI50 [13, 33]: > 1 µM
< 0.01 µM		0.01 to 0.1 µM		0.01 to 0.1 µM		< 0.01 µM	0.01 to 0.1 µM					0.1 to 1 µM	> 1 µM	> 1 µM	> 1 µM	C=CC(=O)Nc1cc(Nc2nccc(-n3ccc4c(OC)cccc43)n2)c(OC)cc1N(C)CCN(C)C [Compound 99, N-(5-(4-(4-methoxyl-1H-indol-1-yl)-pyrimidin-2-ylamino)-2-(2-(dimethylamino-ethyl)-methyl-amino)-4-methoxyl-phenyl)-acrylamide]	< 0.01 µM		0.01 to 0.1 µM		GI50 [1, 34]: 0.00925 µM; GI50 [3, 35]: 0.0141 µM; GI50 [5, 36]: 0.00135 µM; GI50 [8, 37]: 0.00326 µM; GI50 [9, 38]: > 1 µM; GI50 [11, 39]: > 1 µM
0.01 to 0.1 µM	0.01 µM	< 0.01 µM	0.0011 µM	< 0.01 µM	0.002 µM	0.01 to 0.1 µM	< 0.01 µM	0.0048 µM	0.0072 µM	> 1 µM	0.117 µM	0.1 to 1 µM	> 1 µM	> 1 µM	> 1 µM	C=CC(=O)Nc1cc(Nc2ncnc(Nc3cccc(F)c3)n2)c(OC)cc1N(C)CCN(C)C [Compound 114, N-(5-(4-(3-fluoro-phenylamino)-[1,3,5]triazin-2-ylamino)-2-((2-dimethylamino-ethyl)-methyl-amino)-4-methoxyl-phenyl)-acrylamide]	< 0.01 µM	0.0048 µM	< 0.01 µM	0.01 µM	GI50 [11, 29]: > 1 µM; GI50 [12, 31]: > 1 µM; GI50 [13, 33]: > 1 µM
0.01 to 0.1 µM		0.01 to 0.1 µM		0.01 to 0.1 µM		< 0.01 µM	0.01 to 0.1 µM					0.1 to 1 µM	> 1 µM	> 1 µM	> 1 µM	C=CC(=O)Nc1cc(Nc2cc(Nc3cc(OC)c(Cl)cc3Cl)ncn2)c(OC)cc1N(C)CCN(C)C [Compound 136, N-(5-(6-(2,4-dichloro-5-methoxyl-phenylamino)-pyrimidin-4-ylamino)-2-((2-dimethylamino-ethyl)-methyl-amino)-4-methoxyl-phenyl)-acrylamide]	0.01 to 0.1 µM		0.01 to 0.1 µM		GI50 [1, 34]: 0.0101 µM; GI50 [3, 35]: 0.0105 µM; GI50 [5, 36]: 0.0112 µM; GI50 [8, 37]: 0.0147 µM; GI50 [9, 38]: > 1 µM; GI50 [11, 39]: > 1 µM
< 0.01 µM	0.0038 µM	< 0.01 µM	0.0011 µM	< 0.01 µM	0.00038 µM	< 0.01 µM	< 0.01 µM	0.0056 µM	0.0125 µM	> 1 µM	0.0375 µM	0.01 to 0.1 µM	> 1 µM	> 1 µM	> 1 µM	C=CC(=O)Nc1cc(Nc2cc(Nc3ccc(F)c(Cl)c3)ncn2)c(OC)cc1N(C)CCN(C)C [Compound 140, N-(5-(6-(3-chloro-4-fluoro-phenylamino)-pyrimidin-4-ylamino)-2-((2-dimethylamino-ethyl)-methyl-amino)-4-methoxyl-phenyl)-acrylamide]	< 0.01 µM	0.0048 µM	< 0.01 µM	0.0026 µM	GI50 [11, 29]: > 1 µM; GI50 [12, 31]: > 1 µM; GI50 [13, 33]: > 1 µM
< 0.01 µM	0.0046 µM	< 0.01 µM	0.0047 µM	< 0.01 µM	0.00058 µM	< 0.01 µM	< 0.01 µM	0.0056 µM	0.0125 µM	> 1 µM	0.0375 µM	0.01 to 0.1 µM	> 1 µM	> 1 µM	> 1 µM	C=CC(=O)Nc1cc(Nc2cc(Nc3ccc(F)c(Cl)c3)ncn2)c(OC)cc1N1CCN(C2CCN(C)CC2)CC1 [Compound 147, N-(5-(6-(3-chloro-4-fluoro-phenylamino)-pyrimidin-4-ylamino)-4-methoxyl-2-(4-(1-methylpiperidin-4-yl)-piperazin-1-yl)-phenyl)-acrylamide]	< 0.01 µM	0.0048 µM	< 0.01 µM	0.0026 µM	GI50 [11, 29]: 0.896 µM; GI50 [12, 31]: > 1 µM; GI50 [13, 33]: > 1 µM
